Measurements reported in patent US7179814B2, “Agents for controlling plant pests” (priority 1998, dated 2007).
Read-outs that look alike come from different tables or passages of the source.

Experiments:
[1] = tested on: green peach aphid; test: Myzus test (cabbage leaf dip); assay type: in vivo, Myzus (green peach aphid); conditions: concentration 0.00016 %
Protocol: (§1) To produce a suitable preparation of active compound, 1 part by weight of an active compound or an active compound combination is mixed with the stated amounts of solvent and emulsifier, and the concentrate is diluted with water to the desired concentration.
Cabbage leaves (Brassica oleracea) which are heavily infested by the green peach aphid are treated by being dipped into the active compound preparation of the desired concentration.
After the desired period of time, the kill in % is determined. 100% means that all aphids have been killed; 0% means that none of the aphids have been killed.

[2] = tested on: Phytophthora infestans; assay type: in vivo; conditions: single active compound
[3] = tested on: Diabrotica balteata - larvae in the soil; test: Critical concentration test/soil insects, Diabrotica balteata (Example Q); assay type: in vivo; conditions: 1.25 ppm in soil; efficacy calculated from number of emerged maize plants
Protocol: To produce a suitable preparation of active compound, 1 part by weight of active compound is mixed with the stated amount of solvent, the stated amount of emulsifier is added and the concentrate is diluted with water to the desired concentration. Here, the concentration of the active compound in the preparation is almost irrelevant; only the amount by weight of active compound per volume unit of soil, which is stated in ppm (mg/l), matters. The soil is filled into 0.5 l pots and these are allowed to stand at 20° C.
Immediately after preparation, 5 maize corns are placed into each pot. After 3 days, the test insects are placed into the treated soil. After a further 7 days, the efficacy is determined. The efficacy is calculated from the number of maize plants which have emerged.

[4] = tested on: Diabrotica balteata larvae in soil; test: Critical concentration test/soil insects, Diabrotica balteata; assay type: in vivo; conditions: Diabrotica balteata, 168 h, 7 days after infestation, read-out: Kill in %
Protocol: (§2) To produce a suitable preparation of active compound, 1 part by weight of the active compound or the active compound mixture is mixed with the stated amounts of solvent and emulsifier, and the concentrate is diluted with water to the desired concentration.
(§3) The active compound preparation is mixed intimately with soil. Here, the concentration of the active compound in the preparation is almost irrelevant; only the amount by weight of active compound or active compound mixture per volume unit of soil, which is stated in ppm (mg/l), matters.
Soil is filled into 0.5 l pots and these are allowed to stand at 20° C. Immediately after preparation, 5 pre-germinated maize corns are placed into each pot. After 2 days, the test insects are placed into the treated soil. After a further 7 days, the kill in % is determined. 100% means that all test insects have been killed; 0% means that none of the test insects have been killed.

[5] = tested on: Fusarium culmorum; test: Fusarium culmorum test (wheat)/seed treatment; assay type: in vivo; conditions: 75 g/ha, dry seed dressing, approximately 3 weeks after sowing
Protocol: The active compounds are applied as a dry dressing. They are prepared by extending the active compound in question with ground minerals to give a finely pulverulent mixture which ensures even distribution on the surface of the seeds.
For the dressing, the infected seeds are shaken with the dressing in a closed glass bottle for 3 minutes.
2×100 seeds of the wheat are sown at a depth of 1 cm into standard soil, and the wheat is cultivated in a greenhouse at a temperature of approximately 18° C. and at a relative atmospheric humidity of approximately 95% in seed containers receiving 15 hours of light per day.
The evaluation of the plants for symptoms is carried out approximately 3 weeks after sowding. 0% means an efficacy which corresponds to that of the control, whereas an efficacy of 100% means that no infection is observed.

[6] = tested on: Heliothis virescens caterpillars; test: Heliothis virescens test (soya bean shoot dip); assay type: in vivo; conditions: concentration 0.00016 %
Protocol: as §1
Soya bean shoots (Glycine max) are treated by being dipped into the active compound preparation of the desired concentration and are populated with Heliothis virescens caterpillars while the leaves are still moist.
After the desired period of time, the kill in % is determined. 100% means that all caterpillars have been killed; 0% means that none of the caterpillars have been killed.

[7] = tested on: Sphaerotheca fuliginea; test: Sphaerotheca test (cucumber)/protective; assay type: in vivo; conditions: 10 g/ha, single active compound, 10 days after inoculation
Protocol: as §1, with “of” for “of an”, “or” for “or an”, “desired concentration, or a commercial formulation of active compound or active compound combination is diluted with water to the desired” for “desired”
To test for protective activity, young plants are sprayed with the commercial active compound preparation at the stated application rate. After the spray coating has dried on, the plants are inoculated with an aqueous spore suspension of Sphaerotheca fuliginea. The plants are then placed in a greenhouse at approximately 23° C. and a relative atmospheric humidity of approximately 70%.
Evaluation is carried out 10 days after the inoculation. 0% means an efficacy which corresponds to that of the control, whereas an efficacy of 100% means that no infection is observed.

[8] = tested on: Botrytis cinerea; test: Botrytis test (bean)/protective; assay type: in vivo; conditions: single active compound
Protocol: as §1, with “of” for “of an”, “or” for “or an”, “desired concentration, or a commercial formulation of active compound or active compound combination is diluted with water to the desired” for “desired”
To test for protective activity, young plants are sprayed with the active compound preparation at the stated application rate. After the spray coating has dried on, 2 small pieces of agar colonized by Botrytis cinerea are placed onto each leaf. The inoculated plants are placed in a dark chamber at approximately 20° C. and 100% relative atmospheric humidity.
2 days after the inoculation, the size of the disease spots on the leaves is evaluated. 0% means an efficacy which corresponds to that of the control, whereas an efficacy of 100% means that no infection is observed.

[9] = tested on: Phaedon cochleariae larvae; test: Critical concentration test/root-systemic action, Phaedon cochleariae; assay type: in vivo; conditions: 72 h, root-systemic, 3 days after infestation, read-out: Kill in %
Protocol: as §2, §3
Soil is filled into 250 ml pots and these are planted with cabbage (Brassica oleracea). The active compound or the active compound combination can thus be taken up by the plant roots from the soil and transported into the leaves.
After 7 days, the leaves are populated with the abovementioned test animals. After a further 3 days, the kill in % is determined. 100% means that all test insects have been killed; 0% means that the number of insects which are still alive is the same as in the untreated control.

[10] = tested on: Spodoptera frugiperda; test: Critical concentration test/soil insects, Spodoptera frugiperda; assay type: in vivo; conditions: 120 h, 5 days after infestation, read-out: Kill in %
Protocol: as §2, §3
Soil is filled into 0.5 l pots and these are allowed to stand at 20° C. Immediately after preparation, 3 pre-germinated maize corns are placed into each pot. After the maize corns have emerged, boring sleeves are placed onto the pots. 9 days after preparation, the maize is populated with the test insects. After a further 5 days, the kill in % is determined. 100% means that all test insects have been killed; 0% means that the number of insects which are still alive is the same as for the untreated control.

## N#C/N=C1/SCCN1Cc1ccc(Cl)nc1 [formula (I)]
[1]
  Kill in %: 25%
[2]; 10 g/ha
  Efficacy in %: 0%
[2]; 50 g/ha
  Efficacy in %: 11%
[2]; 500 g/ha, 3 days after inoculation
  Efficacy in %: 46%
[3]
  Kill in % at active compound concentrations in ppm: 1.25 ppm = 50%
[4]; 1.25 ppm in soil
  pest or weed control at 1.25 ppm: 0%
[4]; 2.50 ppm in soil
  pest or weed control at 2.5 ppm: 40%
[4]; 5.00 ppm in soil
  pest or weed control at 5 ppm: 90%
[5]
  Efficacy in %: 0%
[6]
  Kill in %: 15%
[7]
  Efficacy in %: 0%
[8]; 10 g/ha, 2 days after inoculation
  Efficacy in %: 0%
[8]; 40 g/ha
  Efficacy in %: 0%
[8]; 500 g/ha
  Efficacy in %: 0%
[9]; 2.50 ppm in soil
  pest or weed control at 2.5 ppm: 0%
[9]; 5.00 ppm in soil
  pest or weed control at 5 ppm: 80%
[9]; 10.00 ppm in soil
  pest or weed control at 10 ppm: 95%
[10]; 5.00 ppm in soil
  pest or weed control at 5 ppm: 0%
[10]; 10.00 ppm in soil
  pest or weed control at 10 ppm: 50%
[10]; 20.00 ppm in soil
  pest or weed control at 20 ppm: 100%
